Read-outs that look alike come from different tables or passages of the source.
Tests used:
Assay type in all cases: cell-based, human
SK-BR-3 = assay: SRB colorimetric assay of cell growth and viability, SK-BR-3; conditions: 48 hours exposure
LoVo = assay: SRB colorimetric assay of cell growth and viability, LoVo; conditions: 48 hours exposure; for CC50: read-out: LC50 LOVO
HeLa-APL = assay: SRB colorimetric assay of cell growth and viability, HeLa-APL; conditions: 48 hours exposure; for CC50: read-out: LC50 HELA-APL
HeLa = assay: SRB colorimetric assay of cell growth and viability, HeLa; conditions: 48 hours exposure; for CC50: read-out: LC50 HELA
LNCaP = assay: SRB colorimetric assay of cell growth and viability, LNCaP; conditions: 48 hours exposure; for GI50: read-out: GI50 LN-caP; for CC50: read-out: LC50 LN-caP
A-549 = assay: SRB colorimetric assay of cell growth and viability, A-549; conditions: 48 hours exposure; for GI50: read-out: GI50 A-549; for CC50: read-out: LC50 A-549
SK-MEL-28 = assay: SRB colorimetric assay of cell growth and viability, SK-MEL-28; conditions: 48 hours exposure; for CC50: read-out: LC50 MEL-28
K-562 = assay: SRB colorimetric assay of cell growth and viability, K-562; conditions: 48 hours exposure; for CC50: read-out: LC50 K-562
HT-29 = assay: SRB colorimetric assay of cell growth and viability, HT-29; conditions: 48 hours exposure; for GI50: read-out: GI50 HT-29; for CC50: read-out: LC50 HT-29
IGROV-1 = assay: SRB colorimetric assay of cell growth and viability, IGROV-1; conditions: 48 hours exposure
IGROV-ET = assay: SRB colorimetric assay of cell growth and viability, IGROV-ET; conditions: 48 hours exposure; for CC50: read-out: LC50 IGROV-ET
DU-145 = assay: SRB colorimetric assay of cell growth and viability, DU-145; conditions: 48 hours exposure
LoVo-Dox = assay: SRB colorimetric assay of cell growth and viability, LoVo-Dox; conditions: 48 hours exposure; for CC50: read-out: LC50 LOVO-DOX
Outline: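 SRB staining (0.4% wt/vol in 1% acetic acid, 10 min, room temperature) of cells fixed with 50% TCA follows a 48-hour exposure to compound. Plating density is 5×10^3 cells/well, and the OD is taken at 490 nm.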

PANC-1 = assay: SRB colorimetric assay of cell growth and viability, PANC-1; conditions: 48 hours exposure; for CC50: read-out: LC50 PANC-1

C/C=C1\NC(=O)[C@H](Cc2ccccc2)NC(=O)[C@@H](C(C)C)NC(=O)[C@@H]([C@@H](C)CC)NC(=O)[C@H](NC(=O)[C@H](NC(=O)[C@H](CCCNC(=O)C(F)(F)F)NC(=O)[C@H]2CCCN2C(=O)[C@H](NC(=O)[C@@H](NC(=O)[C@@H](NC(=O)[C@H](NC(=O)CC[C@@H](C)CC)C(C)C)[C@@H](C)OC(=O)C(F)(F)F)C(C)C)C(C)C)[C@@H](C)CC)[C@@H](C)OC(=O)[C@H](C(C)C)NC1=O [Compound 95, [Orn(N^δTfa)^8,Thr(OTfa)^12, 4(S)MeHex^14]-Kahalalide F]
GI50 (SK-BR-3; SRB): 73.1 nM | LC50 (SK-BR-3; SRB): 520 nM | TGI SK-BR-3 (SK-BR-3; SRB): 1.95E−07 Molar | GI50 (LoVo; SRB): 125 nM | TGI LOVO (LoVo; SRB): 2.34E−07 Molar | CC50 (LoVo; SRB): 437 nM | GI50 (HeLa-APL; SRB): 617 nM | TGI HELA-APL (HeLa-APL; SRB): 1.52E−06 Molar | CC50 (HeLa-APL; SRB): 3740 nM | GI50 (HeLa; SRB): 162 nM | TGI HELA (HeLa; SRB): 3.06E−07 Molar | CC50 (HeLa; SRB): 579 nM | TGI LN-caP (LNCaP; SRB): 5.99E−06 Molar | GI50 (LNCaP; SRB): 1700 nM | CC50 (LNCaP; SRB): 5990 nM | TGI A-549 (A-549; SRB): 2.29E−06 Molar | GI50 (A-549; SRB): 1150 nM | CC50 (A-549; SRB): 4550 nM | GI50 (SK-MEL-28; SRB): 1030 nM | TGI MEL-28 (SK-MEL-28; SRB): 1.84E−06 Molar | CC50 (SK-MEL-28; SRB): 3280 nM | GI50 (K-562; SRB): 3570 nM | TGI K-562 (K-562; SRB): 5.99E−06 Molar | CC50 (K-562; SRB): 5990 nM | TGI HT-29 (HT-29; SRB): 1.93E−07 Molar | GI50 (HT-29; SRB): 86.2 nM | CC50 (HT-29; SRB): 432 nM | GI50 (IGROV-1; SRB): 178 nM | LC50 (concentration causing 50% net cell killing) (IGROV-1; SRB): 550 nM | TGI IGROV (IGROV-1; SRB): 3.13E−07 Molar | GI50 (IGROV-ET; SRB): 219 nM | TGI IGROV-ET (IGROV-ET; SRB): 3.77E−07 Molar | CC50 (IGROV-ET; SRB): 916 nM | GI50 (DU-145; SRB): 892 nM | LC50 (concentration causing 50% net cell kill) (DU-145; SRB): 3360 nM | TGI DU-145 (DU-145; SRB): 1.73E−06 Molar | GI50 (LoVo-Dox; SRB): 124 nM | TGI LOVO-DOX (LoVo-Dox; SRB): 2.41E−07 Molar | CC50 (LoVo-Dox; SRB): 471 nM | GI50 (PANC-1; SRB): 3580 nM | TGI PANC-1 (PANC-1; SRB): 5.99E−06 Molar | CC50 (PANC-1; SRB): 5990 nM

C/C=C1\NC(=O)[C@H](Cc2ccccc2)NC(=O)[C@@H](C(C)C)NC(=O)[C@@H]([C@@H](C)CC)NC(=O)[C@H](NC(=O)[C@H](NC(=O)[C@H](CCCN)NC(=O)[C@H]2CCCN2C(=O)[C@H](NC(=O)[C@@H](NC(=O)[C@@H](NC(=O)[C@H](NC(=O)C(F)(F)C(F)(F)C(F)(F)C(F)(F)C(F)(F)C(F)(F)F)C(C)C)[C@@H](C)O)C(C)C)C(C)C)[C@@H](C)CC)[C@@H](C)OC(=O)[C@H](C(C)C)NC1=O [Compound 26, [Pfh^14]-KF]
GI50 (SK-BR-3): 144 nM | LC50 (SK-BR-3): 2180 nM | TGI SK-BR-3 (SK-BR-3): 4.92E−07 Molar | GI50 (LoVo): 654 nM | TGI LOVO (LoVo): 1.38E−06 Molar | CC50 (LoVo): 2990 nM | GI50 (HeLa-APL): 455 nM | TGI HELA-APL (HeLa-APL): 1.33E−06 Molar | CC50 (HeLa-APL): 3520 nM | GI50 (HeLa): 701 nM | TGI HELA (HeLa): 1.57E−06 Molar | CC50 (HeLa): 3510 nM | TGI LN-caP (LNCaP): 1.72E−06 Molar | GI50 (LNCaP): 900 nM | CC50 (LNCaP): 3280 nM | TGI A-549 (A-549): 1.48E−06 Molar | GI50 (A-549): 684 nM | CC50 (A-549): 3190 nM | GI50 (SK-MEL-28): 754 nM | TGI MEL-28 (SK-MEL-28): 1.50E−06 Molar | CC50 (SK-MEL-28): 2960 nM | GI50 (K-562): 1330 nM | TGI K-562 (K-562): 2.33E−06 Molar | CC50 (K-562): 4070 nM | TGI HT-29 (HT-29): 4.55E−07 Molar | GI50 (HT-29): 203 nM | CC50 (HT-29): 1890 nM | GI50 (IGROV-1): 648 nM | LC50 (concentration causing 50% net cell killing) (IGROV-1): 3360 nM | TGI IGROV (IGROV-1): 1.48E−06 Molar | GI50 (IGROV-ET): 199 nM | TGI IGROV-ET (IGROV-ET): 5.14E−07 Molar | CC50 (IGROV-ET): 2040 nM | GI50 (DU-145): 596 nM | LC50 (concentration causing 50% net cell kill) (DU-145): 3350 nM | TGI DU-145 (DU-145): 1.41E−06 Molar | GI50 (LoVo-Dox): 131 nM | TGI LOVO-DOX (LoVo-Dox): 2.52E−07 Molar | CC50 (LoVo-Dox): 484 nM | GI50 (PANC-1): 2010 nM | TGI PANC-1 (PANC-1): 5.50E−06 Molar | CC50 (PANC-1): 5840 nM

C/C=C1\NC(=O)[C@H](Cc2ccccc2)NC(=O)[C@@H](C(C)C)NC(=O)[C@@H]([C@@H](C)CC)NC(=O)[C@H](NC(=O)[C@H](NC(=O)[C@H](CCCCN)NC(=O)[C@H]2CCCN2C(=O)[C@H](NC(=O)[C@@H](NC(=O)[C@@H](NC(=O)[C@H](NC(=O)CC[C@@H](C)CC)C(C)C)[C@@H](C)O)C(C)C)C(C)C)[C@@H](C)CC)[C@@H](C)OC(=O)[C@H](C(C)C)NC1=O [Compound 30, [Lys^8, (4S)-MeHex^14]-KF]
GI50 (SK-BR-3): 159 nM | LC50 (SK-BR-3): 579 nM | TGI SK-BR-3 (SK-BR-3): 3.04E−07 Molar | GI50 (LoVo): 135 nM | TGI LOVO (LoVo): 2.45E−07 Molar | CC50 (LoVo): 444 nM | GI50 (HeLa-APL): 677 nM | TGI HELA-APL (HeLa-APL): 1.76E−06 Molar | CC50 (HeLa-APL): 4580 nM | GI50 (HeLa): 212 nM | TGI HELA (HeLa): 5.42E−07 Molar | CC50 (HeLa): 2470 nM | TGI LN-caP (LNCaP): 1.72E−06 Molar | GI50 (LNCaP): 804 nM | CC50 (LNCaP): 3680 nM | TGI A-549 (A-549): 2.24E−06 Molar | GI50 (A-549): 1040 nM | CC50 (A-549): 4810 nM | GI50 (SK-MEL-28): 1190 nM | TGI MEL-28 (SK-MEL-28): 2.39E−06 Molar | CC50 (SK-MEL-28): 4780 nM | GI50 (K-562): 1020 nM | TGI K-562 (K-562): 2.28E−06 Molar | CC50 (K-562): 5070 nM | TGI HT-29 (HT-29): 2.99E−07 Molar | GI50 (HT-29): 173 nM | CC50 (HT-29): 517 nM | GI50 (IGROV-1): 205 nM | LC50 (concentration causing 50% net cell killing) (IGROV-1): 1090 nM | TGI IGROV (IGROV-1): 3.87E−07 Molar | GI50 (IGROV-ET): 192 nM | TGI IGROV-ET (IGROV-ET): 3.50E−07 Molar | CC50 (IGROV-ET): 637 nM | GI50 (DU-145): 329 nM | LC50 (concentration causing 50% net cell kill) (DU-145): 4200 nM | TGI DU-145 (DU-145): 1.15E−06 Molar | GI50 (LoVo-Dox): 164 nM | TGI LOVO-DOX (LoVo-Dox): 3.24E−07 Molar | CC50 (LoVo-Dox): 639 nM | GI50 (PANC-1): 2170 nM | TGI PANC-1 (PANC-1): 5.28E−06 Molar | CC50 (PANC-1): 6700 nM

C/C=C1\NC(=O)[C@H](Cc2ccccc2)NC(=O)[C@@H](C(C)C)NC(=O)[C@@H]([C@@H](C)CC)NC(=O)[C@H](NC(=O)[C@H](NC(=O)[C@H](CCCN)NC(=O)[C@H]2CCCN2C(=O)[C@H](NC(=O)[C@@H](NC(=O)[C@@H](NC(=O)[C@@H](C(C)C)N(CCCCCCC)CCCCCCC)[C@@H](C)O)C(C)C)C(C)C)[C@@H](C)CC)[C@@H](C)OC(=O)[C@H](C(C)C)NC1=O [Compound 98, [no5-MeHex^14-N-(Hep)2-D-Val^13]-Kahalalide F]
TGI SK-BR-3 (SK-BR-3; SRB): 6.40E−06 Molar | TGI LOVO (LoVo; LOVO): 6.40E−06 Molar | TGI HELA-APL (HeLa-APL; HELA-APL): 3.46E−06 Molar | TGI HELA (HeLa; HELA): 2.43E−06 Molar | TGI LN-caP (LNCaP; SRB): 6.40E−06 Molar | TGI A-549 (A-549; A-549): 6.40E−06 Molar | TGI MEL-28 (SK-MEL-28; SRB): 6.40E−06 Molar | TGI K-562 (K-562; K-562): 6.40E−06 Molar | TGI HT-29 (HT-29; HT-29): 6.40E−06 Molar | TGI IGROV (IGROV-1; SRB): 6.40E−06 Molar | TGI IGROV-ET (IGROV-ET; SRB): 6.40E−06 Molar | TGI DU-145 (DU-145; SRB): 6.40E−06 Molar | TGI LOVO-DOX (LoVo-Dox; LOVO-DOX): 6.40E−06 Molar | TGI PANC-1 (PANC-1; PANC-1): 6.40E−06 Molar

Source: patent publication US20070117743A1, “New antitumoral compounds” (priority 2003, published 2007)
